One assay deals with LCK (Homo sapiens, UniProt P06239). Nature of the assay: IC50 inhibitory activity against LCK kinase. Type of assay: biochemical. The procedure: (§1) IC50 values were calculated by measuring the inhibitory activity against LCK, c-Src, p38a/MAPK14, ABL1, DDR1 and FGR kinases of the compounds of the present invention.
A further assay addresses c-Src (Homo sapiens, UniProt P12931). Nature of the assay: IC50 inhibitory activity against c-Src kinase. The class given is biochemical. The procedure:
as §1

Structures are written as SMILES. Read-outs that look alike come from different tables or passages of the source. Square brackets hold non-standard residues; d marks the D form. Peptide text beside a SMILES is read from it. * marks the point of attachment. X1 = Cc1ccc(Nc2ncc3c(n2)N(C)C(=O)N(c2cc(C(=O)*)ccc2C)C3)cn1; Ac3c = NC1(C(=O)O)CC1 A value given as a limit tells only on which side of the number the result lay.

Chain of LCK (P06239 whole entry): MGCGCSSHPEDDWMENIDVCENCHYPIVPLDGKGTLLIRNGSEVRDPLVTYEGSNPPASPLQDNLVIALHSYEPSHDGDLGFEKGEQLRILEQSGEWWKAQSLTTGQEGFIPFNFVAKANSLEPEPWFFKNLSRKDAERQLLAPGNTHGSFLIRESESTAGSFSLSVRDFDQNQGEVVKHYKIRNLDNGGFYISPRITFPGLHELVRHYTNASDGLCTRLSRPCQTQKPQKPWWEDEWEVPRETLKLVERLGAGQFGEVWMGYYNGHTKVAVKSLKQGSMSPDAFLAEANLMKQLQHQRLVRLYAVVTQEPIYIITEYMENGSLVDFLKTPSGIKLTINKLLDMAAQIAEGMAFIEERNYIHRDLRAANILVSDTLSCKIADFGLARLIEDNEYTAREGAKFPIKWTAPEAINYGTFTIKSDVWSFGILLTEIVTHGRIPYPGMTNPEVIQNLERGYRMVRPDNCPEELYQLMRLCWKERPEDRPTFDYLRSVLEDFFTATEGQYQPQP
Chain of c-Src (P12931 whole entry): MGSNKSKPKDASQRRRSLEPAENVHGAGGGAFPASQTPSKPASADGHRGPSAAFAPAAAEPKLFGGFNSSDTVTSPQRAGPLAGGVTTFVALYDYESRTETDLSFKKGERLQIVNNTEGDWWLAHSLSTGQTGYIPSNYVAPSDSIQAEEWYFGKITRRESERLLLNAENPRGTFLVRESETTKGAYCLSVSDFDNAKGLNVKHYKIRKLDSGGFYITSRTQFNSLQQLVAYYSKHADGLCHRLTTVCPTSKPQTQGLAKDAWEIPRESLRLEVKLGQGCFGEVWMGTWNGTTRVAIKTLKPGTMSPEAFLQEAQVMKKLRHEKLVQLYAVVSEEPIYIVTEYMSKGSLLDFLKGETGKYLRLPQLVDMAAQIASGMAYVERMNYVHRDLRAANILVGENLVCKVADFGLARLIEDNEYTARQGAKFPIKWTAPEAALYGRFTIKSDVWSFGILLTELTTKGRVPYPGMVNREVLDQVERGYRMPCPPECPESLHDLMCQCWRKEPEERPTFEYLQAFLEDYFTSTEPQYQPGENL

As to `Cc1ccc(Nc2ncc3c(n2)N(C)C(=O)N(c2cc(C(=O)N[C@H](C(=O)N4CCC[C@@H]4C(=O)NC4(C(=O)N[C@@H](CC(C)C)C(=O)N(C)C)CC4)C(C)C)ccc2C)C3)cn1` [Example 3, (R)—N-(1-(((S)-1-(dimethylamino)-4-methyl-1-oxopentan-2-yl)carbamoyl)cyclopropyl)-1-((4-methyl-3-(1-methyl-7-((6-methylpyridin-3-yl)amino)-2-oxo-1,4-dihydropyrimido[4,5-d]pyrimidin-3(2H)-yl)benzoyl)-L-valyl)pyrrolidine-2-carboxamide] (X1-V[dP][Ac3c]L-NMe2), the values for the IC50 on LCK and against c-Src were 1 to 200 nM and over 600 nM, respectively.
On to `Cc1ccc(Nc2ncc3c(n2)N(C)C(=O)N(c2cc(C(=O)N[C@H](C(=O)N4CCC[C@H]4C(=O)NC4(C(=O)N[C@@H](CC(C)C)C(=O)N(C)C)CC4)C(C)C)ccc2C)C3)cn1` [Example 4, (S)—N-(1-(((S)-1-(dimethylamino)-4-methyl-1-oxopentan-2-yl)carbamoyl)cyclopropyl)-1-((4-methyl-3-(1-methyl-7-((6-methylpyridin-3-yl)amino)-2-oxo-1,4-dihydropyrimido[4,5-d]pyrimidin-3(2H)-yl)benzoyl)-L-valyl)pyrrolidine-2-carboxamide] (X1-VP[Ac3c]L-NMe2), for which the IC50 (in general, the concentration that inhibits the measured activity by half) against LCK is 1 to 200 nM; against c-Src, 200 to 400 nM.
For the compound `Cc1ccc(Nc2ncc3c(n2)N(C)C(=O)N(c2cc(C(=O)N[C@H](C(=O)N4CCC[C@@H]4C(=O)NCC(=O)N[C@@H](CC(C)C)C(=O)N(C)C)C(C)C)ccc2C)C3)cn1` [Example 5, (R)—N-(2-(((S)-1-(dimethylamino)-4-methyl-1-oxopentan-2-yl)amino)-2-oxoethyl)-1-((4-methyl-3-(1-methyl-7-((6-methylpyridin-3-yl)amino)-2-oxo-1,4-dihydropyrimido[4,5-d]pyrimidin-3(2H)-yl)benzoyl)-L-valyl)pyrrolidine-2-carboxamide] (X1-V[dP]GL-NMe2), the concentration for half-maximal inhibition (IC50) is 1 to 200 nM against LCK and over 600 nM on c-Src.
Consider `Cc1ccc(Nc2ncc3c(n2)N(C)C(=O)N(c2cc(C(=O)N[C@H](C(=O)N4CCC[C@H]4C(=O)NCC(=O)N[C@@H](CC(C)C)C(=O)N(C)C)C(C)C)ccc2C)C3)cn1` [Example 6, (S)—N-(2-(((S)-1-(dimethylamino)-4-methyl-1-oxopentan-2-yl)amino)-2-oxoethyl)-1-((4-methyl-3-(1-methyl-7-((6-methylpyridin-3-yl)amino)-2-oxo-1,4-dihydropyrimido[4,5-d]pyrimidin-3(2H)-yl)benzoyl)-L-valyl)pyrrolidine-2-carboxamide] (X1-VPGL-NMe2), for which the IC50 on LCK was 1 to 200 nM; against c-Src, over 600 nM.
Take `Cc1ccc(Nc2ncc3c(n2)N(C)C(=O)N(c2cc(C(=O)N[C@@H](Cc4ccccc4)C(=O)N4CCC[C@@H]4C(=O)N[C@H](C(=O)N[C@H](C)c4ccccc4)C(C)C)ccc2C)C3)cn1` [Example 7, (R)—N—((S)-3-methyl-1-oxo-1-(((R)-1-phenylethyl)amino)butan-2-yl)-1-((4-methyl-3-(1-methyl-7-((6-methylpyridin-3-yl)amino)-2-oxo-1,4-dihydropyrimido[4,5-d]pyrimidin-3(2H)-yl)benzoyl)-L-phenylalanyl)pyrrolidine-2-carboxamide]: the results for the IC50 at LCK (read-out: LCK IC50) and at c-Src (read-out: c-Src IC50) were 1 to 200 nM and 400 to 600 nM, respectively.
As for `Cc1ccc(Nc2ncc3c(n2)N(C)C(=O)N(c2cc(C(=O)N[C@H](C(=O)N4CCC[C@@H]4C(=O)N[C@H](C(=O)N[C@H](C)c4ccccc4)C(C)C)C(C)C)ccc2C)C3)cn1` [Example 8, (R)—N—((S)-3-methyl-1-oxo-1-(((R)-1-phenylethyl)amino)butan-2-yl)-1-((4-methyl-3-(1-methyl-7-((6-methylpyridin-3-yl)amino)-2-oxo-1,4-dihydropyrimido[4,5-d]pyrimidin-3(2H)-yl)benzoyl)-L-valyl)pyrrolidine-2-carboxamide], the IC50 on LCK (read-out: LCK IC50) is 400 to 600 nM; on c-Src (read-out: c-Src IC50) it was over 600 nM.

For the origin of these results see US11530221B2, “Pyrimido[4,5-d]pyrimidin-2-one derivatives as protein kinase inhibitors” (KOREA INSTITUTE OF SCIENCE AND TECHNOLOGY, priority 2019, dated 2022).
